Consider five compounds from patent publication US20100137397A1, “Chemical Compounds” (ASTRAZENECA AB, priority 2005, published 2010).

Series [1] concerns the target T1, Human recombinant liver glycogen phosphorylase a (hrl GPa) (Homo sapiens, UniProt P06737).
T1 sequence (P06737 1-847): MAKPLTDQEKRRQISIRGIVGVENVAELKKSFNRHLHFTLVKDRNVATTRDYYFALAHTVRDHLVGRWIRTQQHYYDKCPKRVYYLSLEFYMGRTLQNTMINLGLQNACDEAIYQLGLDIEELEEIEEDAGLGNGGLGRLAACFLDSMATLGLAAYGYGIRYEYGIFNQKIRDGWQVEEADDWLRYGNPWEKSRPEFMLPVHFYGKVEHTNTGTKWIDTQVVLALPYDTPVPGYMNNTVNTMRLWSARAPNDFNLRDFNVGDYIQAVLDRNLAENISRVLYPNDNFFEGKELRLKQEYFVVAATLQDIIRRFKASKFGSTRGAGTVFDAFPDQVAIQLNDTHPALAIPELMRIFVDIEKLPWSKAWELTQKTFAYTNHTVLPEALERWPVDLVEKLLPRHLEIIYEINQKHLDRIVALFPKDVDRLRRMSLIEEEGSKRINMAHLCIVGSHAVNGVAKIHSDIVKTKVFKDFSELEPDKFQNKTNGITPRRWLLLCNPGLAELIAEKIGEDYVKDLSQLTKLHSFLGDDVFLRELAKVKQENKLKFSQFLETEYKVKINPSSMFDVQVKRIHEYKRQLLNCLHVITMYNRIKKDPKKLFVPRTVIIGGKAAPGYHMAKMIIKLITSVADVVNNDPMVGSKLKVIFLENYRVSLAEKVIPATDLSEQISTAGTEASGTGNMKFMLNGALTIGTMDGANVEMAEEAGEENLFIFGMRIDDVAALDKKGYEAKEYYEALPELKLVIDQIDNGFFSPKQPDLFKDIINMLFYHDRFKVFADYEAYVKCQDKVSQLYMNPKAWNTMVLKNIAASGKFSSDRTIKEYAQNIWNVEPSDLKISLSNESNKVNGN
Briefly: glycogen phosphorylase a multienzyme coupled assay. The class given is biochemical. The following applies: hrl GPa 20 nM, 8 mM glucose, pH7.2, 6 hours at 30° C. On the procedure:
The activity of the compounds is determined by measuring the inhibitory effect of the compounds on glycogen degradation, the production of glucose-1-phosphate from glycogen is monitored by the multienzyme coupled assay, as described in EP 0 846 464 A2, general method of Pesce et al (Pesce, M A, Bodourian, S H, Harris, R C, and Nicholson, J F (1977) Clinical Chemistry 23, […]). The reactions were in 384well microplate format in a volume of 50 μl. The change in fluorescence due to the conversion of the co-factor NAD to NADH is measured at 340 nm excitation, 465 nm emission in a Tecan Ultra Multifunctional Microplate Reader. The reaction is in 50 mM HEPES, 3.5 mM KH2PO4, 2.5 mM MgCl2, 2.5 mM ethylene glycol-bis(b-aminoethyl ether) N,N,N′,N′-tetraacetic acid, 100 mM KCl, 8 mM D-(+)-glucose pH7.2, containing 0.5 mM dithiothreitol, the assay buffer solution. Human recombinant liver glycogen phosphorylase a (hrl GPa) 20 nM is pre-incubated in assay buffer solution with 6.25 mM NAD, 1.25 mg type III glycogen at 1.25 mg m^−1 the reagent buffer, for 30 minutes. […] The non-inhibited activity of GPa is measured in the presence of 10 μl 5% DMSO in assay buffer solution and maximum inhibition measured in the presence of 5 mgs ml^−1 N-ethylmaleimide. […] Relative Fluoresence Units (RFUs) are measured at 340 nm excitation, 465 nm emission. […]
Activity is calculated as follows:—

The conditions of series [2]: conscious dogs; cited from earlier work.
Series [3] deals with hepatocytes. The following applies: cited from earlier work.
For series [4] the following is noted: db/db and ob/ob mice; cited from earlier work.

A word on the IC50: it is the midpoint of a concentration-inhibition curve. Regarding `O=C(O)COC[C@@H]1c2ccccc2C[C@H]1NC(=O)c1cc2cc(Cl)sc2[nH]1` [Example 1, [((1R,2R)-2-{[(2-Chloro-6H-thieno[2,3-b]pyrrol-5-yl)carbonyl}amino]-2,3-dihydro-1H-inden-1-yl)methoxy]acetic acid], in series [1], the concentration for half-maximal inhibition (IC50) worked out at 191 nM. Turning to `O=C(O)C[C@@H]1c2ccccc2C[C@H]1NC(=O)c1cc2sc(Cl)c(Cl)c2[nH]1` [Example 8, ((1R,2R)-2-{[(2,3-Dichloro-4H-thieno[3,2-b]pyrrol-5-yl)carbonyl]amino}-2,3-dihydro-1H-inden-1-yl)acetic acid], in series [1], the half-inhibitory concentration (IC50) stood at 14 nM. In the case of `CCN1C(C)=C(C(=O)OC(C)C)C(c2ccccc2Cl)C2=C1COC2=O` (stereo not shown) [Bay R 3401], the “hepatic glucose output and arterial plasma glucose following a glucagon challenge” value in series [2] is on record as “reduced significantly”.

With `O=C(N[C@@H](Cc1ccc(F)cc1)C(=O)N1CCC(O)CC1)c1cc2cc(Cl)ccc2[nH]1` [CP320626], in series [3], the “glucagon stimulated glycogenolysis and glucose output in hepatocytes” value is on record as “reduce”. The plasma glucose concentration entry in series [4] was “reduced, in a dose related manner”. For the compound `CN(C)C(=O)[C@H](O)[C@H](Cc1ccccc1)NC(=O)c1cc2cc(Cl)ccc2[nH]1` [CP91149], the “glucagon stimulated glycogenolysis and glucose output in hepatocytes” value in series [3] was “reduce”. The plasma glucose concentration result in series [4] is on record as “reduced, in a dose related manner”.
